The target in this assay is T1, PAF receptor (Homo sapiens, UniProt P25105).
T1 construct: tissue Lifesource, Inc. (Glenview, Ill.); host or cells: human packed platelets (washed, freeze-thawed membrane preparation)
The assay can be described thus: Inhibition of the Specific Binding of [^3 H]PAF to Human Platelet Membrane Preparation. Conditions: 0.75 nM [^3 H]PAF, 30 minutes at 24° C., pH 7.4. The protocol: Inhibition of the Specific Binding of [^3 H]PAF to Human Platelet Membrane Preparation.
Human packed platelets were obtained from Lifesource, Inc. (Glenview, Ill.) and washed 3 times with 10 mM Trizma pH 7.0, 2 mM EDTA (dipotassium salt), 150 mM KCl and then once with 10 mM Trizma 7.4, 20 mM CaCl2. The platelets were broken by freezing in a dry ice-ethanol bath, followed by thawing in 24° C. water baths. The preparation was centrifugation (40,000×g, 20 minutes, 4' C) and the pellet resuspended in 10 mM Trizma 7.4, 20 mM CaCl2, 5 mg/ml human albumin. Protein concentration in the platelet membrane preparation was determined by the Lowry method [O.H. Lowry et al. J. Biological Chemistry, 193, 265-275 (1951)]. Aliquots of the membrane preparation were stored at -70° C. Each preparation was characterized for PAF receptor number and dissociation constant (Kd). In binding assays 5 μl of test compound, solubilized in DMSO, was added to polypropylene tubes along with 0.75 nM [^ 3 H]PAF and 200 mcl [0.075 nM] of membranes and 95 μl 10 mM Trizma 7.4, […], 5 mg/ml human albumin. Tubes were incubated for 30 minutes at 24° C. […] Filters were prepared and counted for a scintillation counter. […] The IC50 values were determined by the Allfit program using percent displacement data. […]

SMILES strings stand for the structures.

T1 sequence (P25105 whole entry): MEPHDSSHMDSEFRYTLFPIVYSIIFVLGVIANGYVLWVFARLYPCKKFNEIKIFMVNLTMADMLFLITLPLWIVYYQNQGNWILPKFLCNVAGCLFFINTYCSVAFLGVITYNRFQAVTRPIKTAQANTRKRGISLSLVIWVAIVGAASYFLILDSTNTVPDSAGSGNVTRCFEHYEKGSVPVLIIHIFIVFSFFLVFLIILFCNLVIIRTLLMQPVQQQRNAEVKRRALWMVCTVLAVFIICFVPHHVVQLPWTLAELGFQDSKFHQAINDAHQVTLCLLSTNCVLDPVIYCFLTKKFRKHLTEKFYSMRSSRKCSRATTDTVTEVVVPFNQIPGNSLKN

For `COc1cc(C(=O)N(C(C)C)C2CCCCC2)ccc1Cn1ccc2ncnc-2c1-c1ccccc1` [Compound 9, N-cyclohexyl-3-methoxy-N-(1-methylethyl)-4-[(4-phenyl-5H-imidazo[4,5-c]pyridin-5-yl)methyl]benzamide], the IC50 came to 1040 nM. That is a single-digit micromolar value.

Usually IC50 stands for the concentration at which inhibition is half-maximal. Low readings indicate inhibition by little substance, high ones a need for much substance.

Source of the values: US5208242A, “5-substituted-4-phenyl-5H-imidazo[4,5-c]pyridine derivatives” (G. D. Searle & Co., priority 1992, dated 1993).
